Assay results reported in paper PMC10610505, “Synthesis and Biological Evaluation of Some New 3-Aryl-2-thioxo-2,3-dihydroquinazolin-4(1H)-ones and 3-Aryl-2-(benzylthio)quinazolin-4(3H)-ones as Antioxidants; COX-2, LDHA, α-Glucosidase and α-Amylase Inhibitors; and Anti-Colon Carcinoma and Apoptosis-Inducing Agents” (Pharmaceuticals, 2023).
“And” between values parts separate entries of the source, which are not always exact repeats. Equal values may be shown once.

Assays:
α-amylase = experiment: In vitro α-amylase (AA) inhibition assay; details: mean ± SD of three replicates
Experimental: Then, 180 µL of Labtest (the amylase substrate) was added and the samples were incubated for 8 min, followed by measuring the first reaction at 620 nm to obtain (X1). Afterwards, the reaction mixture was incubated for an additional 5 min at 37 °C; then, the second reaction was measured to obtain the final reading (X2). […] The results were expressed as IC50 µg/mL (as well as µM) and were determined from the standard curves.

COX-2 = target: T1, COX-2 (Homo sapiens, UniProt P35354); experiment: COX-2 inhibitory screening assay (Cayman kit); type: biochemical
T1 construct: purchased Cayman Chemical Company 701080
T1 sequence (P35354 18-604): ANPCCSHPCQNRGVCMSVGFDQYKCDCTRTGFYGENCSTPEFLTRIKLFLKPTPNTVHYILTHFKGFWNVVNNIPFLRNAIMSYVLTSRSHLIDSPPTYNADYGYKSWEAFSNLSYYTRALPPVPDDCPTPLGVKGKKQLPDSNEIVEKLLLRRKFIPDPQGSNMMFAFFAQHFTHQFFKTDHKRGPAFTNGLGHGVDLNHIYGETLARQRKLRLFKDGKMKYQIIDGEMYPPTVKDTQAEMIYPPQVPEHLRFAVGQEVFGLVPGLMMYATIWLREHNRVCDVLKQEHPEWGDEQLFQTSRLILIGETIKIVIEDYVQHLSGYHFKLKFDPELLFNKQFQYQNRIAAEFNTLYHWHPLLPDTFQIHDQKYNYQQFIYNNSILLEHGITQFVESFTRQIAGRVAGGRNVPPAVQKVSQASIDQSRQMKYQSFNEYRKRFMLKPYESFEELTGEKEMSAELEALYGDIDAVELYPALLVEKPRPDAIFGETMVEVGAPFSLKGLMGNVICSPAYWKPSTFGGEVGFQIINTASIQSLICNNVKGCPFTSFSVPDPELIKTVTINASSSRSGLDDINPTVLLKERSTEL
Experimental: Each compound of the two series, 3a–h and 5a–h, was resuspended in 100% DMSO at a final concentration of 10 mg/mL. […] Briefly, 10 µL of the tested compound was added to a mixture of the reaction buffer solution (160 µL of 0.1 M Tris-HCl, pH 8.0, in the presence of 2 mM phenol and 5 mM EDTA), COX-2 (10 µL) and heme (10 µL). After a 10 min incubation at 37 °C, the reaction was started by adding arachidonic acid (10 µL), rapidly mixed and kept at 37 °C for 2 min. PGF2α generated via PGH2 reduction with stannous chloride (30 µL) was incubated at room temperature for 5 min. The PGF2α amount was then determined via an enzyme immunoassay. Prior to incubation with the COX-2 reaction (at room temperature 18 h), the 96-well plate was previously coated with a mouse anti-rabbit monoclonal antibody. Unbound reagents were removed by washing the plate followed by adding Ellman’s reagent to the well. The reaction product displaying a distinct yellow color was measured at 410 nm using a UV microplate reader. The % inhibition was calculated by comparing the PGF2α produced in the compound-treated samples with a control sample, using the following equation: % inhibition is equal to [([PGF2α]control − [PGF2α]sample) /[PGF2α ]control ] × 100. […] The COX-2 inhibitory efficiency was expressed as an inhibition percentage, which was determined via a comparison with the negative control experiments.

[1] = DPPH radical scavenging assay; type: biochemical
Excerpt: In principle, the antioxidant power of a compound in this assay is correlated to its tendency to reduce the stable, purple-colored DPPH radical through a hydrogen atom transfer (HAT) mechanism and/or a single electron transfer mechanism, thereby converting it to the yellow-colored 2,2-diphenyl-1-picrylhydrazine, whereby this reduction is accompanied by a depletion in the amount of the initial DPPH radicals and a change in the absorbance of the test solution accordingly, which can be detected relative to the blank solution at λ = 517 nm.
The antioxidant potencies of all synthesized compounds were investigated using a 1,1 diphenyl-2-picrylhydrazyl (DPPH) radical scavenging assay according to the protocol described by Bersuder et al.. In brief, a 0.5 mL volume of DPPH ethanolic solution was mixed with an equal volume of each sample concentration (i.e., the test compound or butylated hydroxytoluene, BHT, which was used as the reference antioxidant in the positive control experiment), shaken strongly, and incubated at room temperature for 1 h in darkness. The absorbance of the residual DPPH radicals was measured at λ = 519 nm and compared to the negative control (without the test compound or reference antioxidant). The DPPH radical scavenging power was calculated using the following formula: scavenging efficiency (%) = (1 − Acompound/AControl) × 100, where Acompound and Acontrol are the absorbance of the tested compound and the negative control, respectively. […] Additionally, the ± SD values were calculated from three independent triplicate measurements.

[2] = target: α-glucosidase enzyme from Saccharomyces Cerevisiae (Saccharomyces cerevisiae, UniProt P53341); experiment: In vitro α-glucosidase (AG) inhibitory activity; details: mean ± SD of three replicates
Experimental: Then, the reaction was allowed to start by adding 150 µL of the color reagent 4-NPGP and the resulting mixture was incubated for additional 15 min at 37 °C. Collectively, the colorimetric assay medium contained 2U of α-glucosidase, 5 mM of 4-NPGP and 10 mM of the potassium phosphate buffer with a pH of 6.9. […] The inhibitory efficiency of each compound was expressed as IC50 µg/mL (as well as µM), which was calculated from the corresponding calibration curve.

[3] = system: LoVo human colon carcinoma cells; experiment: Viability assay (LDH release), LoVo; type: cell-based
Experimental: (§1) The anticancer activities of all the synthesized compounds were assessed against two human colon carcinoma cell lines, namely LoVo and HCT-116 (Table 6), via the determination of the mean percents of the viable cancerous cells remaining after being incubated with 200 µg/mL of each test compound for 48 h using LDH assay.
(§2) The samples were diluted in Dulbecco’s Modified Eagle’s Medium, consisting of 10% fetal bovine serum (FBS), added to cells grown and cultured for 24 h in a 5% CO2-humidified incubator at 37 °C. Thereafter, the activity of lactate dehydrogenase released from damaged cells was determined in the collected supernatant aliquots using an ELISA end-point assay (Benchmark Plus, Bio-Rad, CA, USA); 0.1% Triton X-100 in the assay medium and the assay medium only were used as the positive and negative controls, respectively. Cell viability was expressed as a relative percentage of the OD values (at 550 nm) for compound-treated cells (final concentration of 200 µg /mL) and the negative control, which was shown as the mean % ± SD (n = 3). The results of the viability assays for the potential cytotoxic candidates were compared with the % of viable human umbilical vein endothelial cells (HUVEC) at the same concentration. These cells were grown in Dulbecco’s Modified Eagle’s Medium (PAN-Biotech; Barcelona, Spain) containing 10% FBS (Sigma Aldrich; St. Quentin-Fallavier, France), 2 mM Glutamine (Sigma Aldrich), 100 units/mL penicillin and […] streptomycin (Life Technologies; Paisley, UK).

[4] = target: purified recombinant human LDHA protein (Homo sapiens, UniProt P00338); experiment: Lactate dehydrogenase A (LDHA) inhibitory assay; type: biochemical
Experimental: The LDHA inhibitory effectiveness was investigated by measuring the amounts of consumed NADH [73]. […] The fluorescence of NADH, which has an excitation wavelength of 340 nm and an emission wavelength of 460 nm, was detected using a spectrofluorometer. […] The LDHA inhibitory efficiency was expressed as an inhibition percentage, which was determined via a comparison with the negative control experiments.

[5] = system: HCT-116 human colon carcinoma cells; experiment: Viability assay (LDH release), HCT-116; type: cell-based
Experimental: as §1, §2

[6] = Viability assay (LDH release), HUVEC; type: cell-based, human; details: human, human umbilical vein endothelial cells (HUVEC); 200 µg/mL; read-out: Mean % of viable cells ± SD, HUVEC
Experimental: as §2

[7] = system: non-tumoral human umbilical vein endothelial cells (HUVEC); experiment: Viability assay (LDH release), HUVEC; type: cell-based; details: Homo sapiens, HUVEC
Experimental: as §2

[8] = % inhibition at 0.200 mg/mL divided by % inhibition at 0.100 mg/mL

α-glucosidase enzyme from Saccharomyces Cerevisiae, sequence (P53341 whole entry): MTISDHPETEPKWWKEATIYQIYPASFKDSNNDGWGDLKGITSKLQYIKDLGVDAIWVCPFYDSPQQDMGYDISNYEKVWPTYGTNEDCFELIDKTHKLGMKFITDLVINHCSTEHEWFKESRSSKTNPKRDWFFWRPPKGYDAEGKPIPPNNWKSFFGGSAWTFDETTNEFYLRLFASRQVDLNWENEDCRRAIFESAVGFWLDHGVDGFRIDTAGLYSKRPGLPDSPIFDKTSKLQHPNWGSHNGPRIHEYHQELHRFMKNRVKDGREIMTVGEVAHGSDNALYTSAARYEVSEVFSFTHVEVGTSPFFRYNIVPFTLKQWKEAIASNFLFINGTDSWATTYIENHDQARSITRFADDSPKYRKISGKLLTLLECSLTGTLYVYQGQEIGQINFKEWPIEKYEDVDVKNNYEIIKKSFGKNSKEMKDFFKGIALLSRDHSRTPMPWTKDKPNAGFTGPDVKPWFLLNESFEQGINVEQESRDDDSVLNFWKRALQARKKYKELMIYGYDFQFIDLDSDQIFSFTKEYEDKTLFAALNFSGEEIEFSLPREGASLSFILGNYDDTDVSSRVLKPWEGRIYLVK

IC50 ([3]; Homo sapiens, LoVo, from concentration–response curves) | IC50 ([5]; Homo sapiens, HCT-116, from concentration–response curves) | SMILES | Mean IC50 α-Amylase (AA) (α-amylase) | IC50 (α-amylase; read-out: Mean IC50 α-Amylase (AA)) | Increase in COX-2 inhibitory efficiency by duplicating the concentration (COX-2; [8]) | COX-2 mean % inhibition ± SD (COX-2; at 0.100 mg/mL) | COX-2 mean % inhibition ± SD (COX-2; at 0.200 mg/mL) | Mean IC50 for scavenging initial DPPH radicals ([1]; mean ± SD of three replicates) | IC50 ([1]; mean ± SD, converted from mg/mL, read-out: Mean IC50 for scavenging initial DPPH radicals (converted)) | Mean IC50 α-Glucosidase (AG) [2] | IC50 ([2]; read-out: Mean IC50 α-Glucosidase (AG)) | Mean % of viable cells ± SD, LoVo ([3]; 200 µg/mL, 48 h) | Fold change of LDHA inhibition as compared to 0.1 mg/mL [4, 8] | LDHA mean % inhibition ± SD ([4]; at 0.1 mg/mL) | LDHA mean % inhibition ± SD ([4]; at 0.2 mg/mL) | Mean % of viable cells ± SD, HCT-116 ([5]; 200 µg/mL, 48 h) | viability at 200 µg/mL [6] | IC50 [7] | Selectivity index (IC50 normal cell / IC50 cell line), LoVo ([3]; HUVEC vs LoVo) | Selectivity index (IC50 normal cell / IC50 cell line), HCT-116 ([5]; HUVEC vs HCT-116)
 |  | O=c1c2cc(Cl)ccc2nc(SCc2ccc(Cl)cc2)n1-c1ccc(C(F)(F)F)cc1 [Compound 5d, 2-(4-Chloro-benzylsulfanyl)-6-chloro-3-(4-trifluoromethyl-phenyl)-3H-quinazolin-4-one] | 181.667 ± 5.508 µg/mL | 377 µM | 1.68 fold | 26.300 ± 1.839% | 44.050 ± 1.344% | 200 ± 28 µg/mL | 416 µM | 38.100 ± 0.656 µg/mL | 79.2 µM | 76.000 ± 1.732% | 1.47 fold | 13.850 ± 2.051% | 20.400 ± 1.980% | 86.667 ± 1.528% |  |  |  | 
2.91 µg/mL and 22.4 µM | 11.8 µg/mL and 91.1 µM | O=c1[nH]cc(F)c(=O)[nH]1 [Compound 5-FU, 5-Fluorouracil, reference compound] |  |  |  |  |  |  |  |  |  |  |  |  |  |  | 57.3 ± 2.52% | 298 µg/mL and 2.29 mM | 102.577 | 25.190
